Measurements published in PMC8808171, “Nonselective TRPC channel inhibition and suppression of aminoglycoside-induced premature termination codon readthrough by the small molecule AC1903” (The Journal of Biological Chemistry, 2022).

Target: T1, TRPC4:C4 (Homo sapiens, UniProt Q9UBN4)
T1 construct: expressed in transfected cells; host or cells: HEK T-REx (tetracycline-induced)
T1 sequence (Q9UBN4 1-893 isoform Q9UBN4-2): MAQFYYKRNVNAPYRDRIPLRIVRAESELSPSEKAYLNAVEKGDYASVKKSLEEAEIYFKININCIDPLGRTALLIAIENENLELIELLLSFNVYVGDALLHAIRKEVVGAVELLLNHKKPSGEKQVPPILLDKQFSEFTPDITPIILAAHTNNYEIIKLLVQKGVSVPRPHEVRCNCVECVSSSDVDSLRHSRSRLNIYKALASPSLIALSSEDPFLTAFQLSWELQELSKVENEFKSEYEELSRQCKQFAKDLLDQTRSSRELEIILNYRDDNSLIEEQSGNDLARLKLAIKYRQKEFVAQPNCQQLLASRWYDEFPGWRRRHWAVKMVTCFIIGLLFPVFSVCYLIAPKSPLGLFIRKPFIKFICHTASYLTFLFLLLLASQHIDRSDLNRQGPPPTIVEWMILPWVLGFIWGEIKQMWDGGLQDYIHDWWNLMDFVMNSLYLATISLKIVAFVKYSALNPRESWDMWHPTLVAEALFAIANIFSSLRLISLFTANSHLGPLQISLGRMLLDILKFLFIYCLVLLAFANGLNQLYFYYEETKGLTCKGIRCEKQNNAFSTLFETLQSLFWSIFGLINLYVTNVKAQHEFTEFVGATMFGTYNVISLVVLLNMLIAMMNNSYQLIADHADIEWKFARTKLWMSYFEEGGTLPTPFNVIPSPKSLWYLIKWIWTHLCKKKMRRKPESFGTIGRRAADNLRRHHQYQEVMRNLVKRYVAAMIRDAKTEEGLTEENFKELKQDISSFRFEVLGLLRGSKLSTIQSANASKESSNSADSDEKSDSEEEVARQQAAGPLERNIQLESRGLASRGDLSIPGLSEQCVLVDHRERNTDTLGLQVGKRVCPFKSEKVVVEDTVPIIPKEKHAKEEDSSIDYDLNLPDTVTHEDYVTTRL
Assay: [Ca2+]i recordings (Fura-2), TRPC4:C4 in HEK T-REx cells
Type: cell-based
Settings: for IC50: HEK T-REx
Protocol: Based on the findings described above, we wondered whether AC1903—which is typically used as a TRPC5 inhibitor at concentrations of 30–100 μM in cellular assays ([29], [56])—might have limited selectivity for TRPC5 channels and whether its effect on intracellular G418 levels and PTC readthrough might be the consequence of inhibition of other or multiple targets. All well-characterized TRPC channel inhibitors reported to date modulate multiple TRP(C) channels ([34], [35], [36]). […] Because limited data for the selectivity of AC1903 are available in the public domain, we decided to profile AC1903 against a selection of calcium-permeable cation channels by intracellular calcium ([Ca^2+]i) recordings using well-characterized cell lines and TRP channel activators ([46], [57], [58]), and the Ca^2+ indicator Fura-2. In these assays, cells (HEK 293, HEK T-REx, or CHO) overexpressing the relevant ion channel protein and loaded with Fura-2 AM (a cell-permeable precursor of Fura-2) were preincubated with various concentrations of AC1903 or vehicle (DMSO) for 30 min. Then, changes in ratiometric fluorescence (from background) were recorded upon addition of the respective ion channel activator.
Figure 4 AC1903 inhibits multiple TRP channels.A and C, representative [Ca^2+]i measurements from a single 96-well plate (N = 6; mean ± SD over technical replicates) showing inhibition of EA-mediated [Ca^2+]i responses by 0.1 to 100 μM AC1903 in (Tet+) HEK T-REx cells expressing TRPC5 (A) or TRPC4 (C). B and D, concentration–response data for experiments in (A) and (C) (scatter plots showing normalized data for three independent experiments; n/N = 3/18). Responses were calculated at 250 to 295 s compared to [Ca^2+]i at baseline (0–55 s). E and G, representative [Ca^2+]i measurements from a single 96-well plate (N = 6; mean ± SD over technical replicates) showing inhibition of OAG-mediated [Ca^2+]i responses by 0.1 to 100 μM AC1903 in (Tet+) HEK T-REx cells expressing TRPC3 (E) and WT HEK 293 cells transiently expressing TRPC6 (G). F and H, concentration–response data for experiments in (E) and (G) (scatter plots showing normalized data for three independent experiments; n/N = 3/18). Responses were calculated at 90 to 110 s compared with [Ca^2+]i at baseline (0–55 s). I, representative [Ca^2+]i measurements from a single 96-well plate (N = 6; mean ± SD over technical replicates) showing inhibition of the 4α-PDD-mediated [Ca^2+]i response by 0.1 to 100 μM AC1903 in CHO cells stably expressing TRPV4. J, concentration–response data for experiments in (I) (scatter plot showing normalized data for three independent experiments; n/N = 3/18). Responses were calculated at 290 to 300 s compared with [Ca^2+]i baseline (0–55 s). EA, (-)-englerin A; TRPC, transient receptor potential canonical. […]

c1ccc(Cn2c(NCc3ccco3)nc3ccccc32)cc1 [AC1903]
IC50 (activator EA (30 nM)): 2.1 µM | IC50 (activator S1P (10 μM)): 1.8 µM | Hill slope (activator EA (30 nM)): -1.7 | Hill slope (activator S1P (10 μM)): -1.9
